Source: patent US8772499B2, “TRPV3 modulators” (AbbVie Inc., priority 2011, dated 2014)
Where two headings read alike, the source gives them in different places.

How the values were obtained:
[1] = molecular target: T1, human TRPV3 (Homo sapiens, UniProt Q8NET8); experiment: In vitro antagonism of recombinant human TRPV3 activation (FLIPR Tetra calcium assay); assay type: cell-based; details: HEK293 cells stably expressing human TRPV3, agonist 2-APB at 80 μM
T1 construct: expressed in transfected cells
T1 sequence (Q8NET8 1-790): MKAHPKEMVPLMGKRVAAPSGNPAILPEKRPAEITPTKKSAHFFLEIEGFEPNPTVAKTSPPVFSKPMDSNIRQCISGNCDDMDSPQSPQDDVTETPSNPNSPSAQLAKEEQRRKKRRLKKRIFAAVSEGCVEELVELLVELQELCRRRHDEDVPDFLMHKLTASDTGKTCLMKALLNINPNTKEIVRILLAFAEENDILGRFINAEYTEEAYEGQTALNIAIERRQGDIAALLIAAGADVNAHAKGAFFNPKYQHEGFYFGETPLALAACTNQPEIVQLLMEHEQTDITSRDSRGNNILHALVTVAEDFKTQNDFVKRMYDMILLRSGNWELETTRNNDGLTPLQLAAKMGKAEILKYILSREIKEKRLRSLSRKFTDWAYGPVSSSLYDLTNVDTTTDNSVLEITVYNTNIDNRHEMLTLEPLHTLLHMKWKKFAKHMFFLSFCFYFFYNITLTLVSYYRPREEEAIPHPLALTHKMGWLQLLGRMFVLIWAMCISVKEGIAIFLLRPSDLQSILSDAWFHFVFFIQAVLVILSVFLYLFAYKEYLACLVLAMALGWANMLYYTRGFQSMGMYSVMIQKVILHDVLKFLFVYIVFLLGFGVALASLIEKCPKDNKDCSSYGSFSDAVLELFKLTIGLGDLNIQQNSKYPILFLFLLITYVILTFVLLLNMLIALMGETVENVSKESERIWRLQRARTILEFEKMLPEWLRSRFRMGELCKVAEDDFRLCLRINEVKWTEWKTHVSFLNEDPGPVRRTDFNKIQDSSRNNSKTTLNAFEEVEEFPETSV
In short: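 HEK293 cells stably expressing human TRPV3, loaded with Calcium-4 dye for 90–120 min, received compound in DPBS, then 80 μM 2-APB (EC80) 3 min later. Max-minus-min fluorescence expressed as % of 2-APB response without antagonist; IC50 values mostly averages of n≥2 runs.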

[2] = In vitro human microsomal stability assay; assay type: in vitro ADME; details: human, microsomes, 0.5 h, 0.5 μM, pH 7.4
In short: (§1)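 Compound is mixed with liver microsomes (human, or rat of the Sprague-Dawley strain). The mixture is then held at 37° C. in the presence of NADPH. Time-zero plates also receive NADPH.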

[3] = In vitro rat microsomal stability assay; assay type: in vitro ADME, rat (Sprague-Dawley); details: Sprague-Dawley, rat, microsomes, 0.5 h, 0.5 μM, pH 7.4
In short: as §1

[4] = actual measured value shown parenthetically, in most cases average of at least two runs, read-out: IC50
[5] = reported range, read-out: IC50 (range class)

Structure (SMILES) | IC50 [1, 4] | HUMAN MICROSOMAL STABILITY (% REMAINING AFTER 30 MINUTES) [2] | RAT MICROSOMAL STABILITY (% REMAINING AFTER 30 MINUTES) [3] | IC50 [1, 5]
OC(c1ccccn1)C1(c2cccc(OC(F)(F)F)c2)CC(F)(F)C1 (stereo not drawn) [Example 114, {3,3-difluoro-1-[3-(trifluoromethoxy)phenyl]cyclobutyl}(pyridin-2-yl)-methanol] | 0.23 µM | 6.9% | 11% | –
OC(c1ccccn1)C1(c2ccc(F)c(F)c2)CCC1 (stereo not drawn) [Example 4, [1-(3,4-difluorophenyl)cyclobutyl](pyridin-2-yl)methanol] | 0.46 µM | 19% | 4.2% | –
OC(c1ccccn1)C1(c2ccc(Cl)c(Cl)c2)CCNCC1 (stereo not drawn) [Example 140, [4-(3,4-dichlorophenyl)piperidin-4-yl](pyridin-2-yl)methanol] | > 20 µM | >85% | 37% | > 20 µM
OC(c1ccccn1)C1(c2cccc(Oc3ccccc3)c2)CCC1 (stereo not drawn) [Example 23, [1-(3-phenoxyphenyl)cyclobutyl](pyridin-2-yl)methanol] | 0.93 µM | 0.12% | 0.69% | –
OC(c1ccccn1)C1(c2cccc(OC(F)(F)F)c2)CCCO1 (single isomer, unassigned) [Example 93, (syn)-pyridin-2-yl{2-[3-(trifluoromethoxy)phenyl]tetrahydrofuran-2-yl}methanol] | 0.59 µM | 12% | 0.33% | –
OC(c1ccccn1)C1(c2ccc(C(F)(F)F)cn2)CCC1 (stereo not drawn) [Example 115, pyridin-2-yl{1-[5-(trifluoromethyl)pyridin-2-yl]cyclobutyl}methanol] | 19.4 µM | >85% | 81% | –
OC(c1ccccn1)C1(c2ccccc2C(F)(F)F)CCC1 (stereo not drawn) [Example 5, pyridin-2-yl{1-[2-(trifluoromethyl)phenyl]cyclobutyl}methanol] | 5.22 µM | 0.27% | 0.06% | –
OC(c1ccccn1)C1(c2ccc(F)c(F)c2)CCCO1 (single isomer, unassigned) [Example 108, (anti)-[2-(3,4-difluorophenyl)tetrahydrofuran-2-yl](pyridin-2-yl)methanol] | 0.61 µM | 13% | 4.9% | –
O[C@@H](c1ncccn1)C1(c2ccc(Cl)c(Cl)c2)CCC1 [Example 40, (R)-[1-(3,4-dichlorophenyl)cyclobutyl](pyrimidin-2-yl)methanol] | 13.3 µM | 68% | 5.6% | –
OC(c1ccccn1)C1(c2cccc(OC(F)(F)F)c2)CCCO1 (single isomer, unassigned) [Example 92, (anti)-pyridin-2-yl{2-[3-(trifluoromethoxy)phenyl]tetrahydrofuran-2-yl}methanol] | 0.1 µM | 2.7% | 0.23% | –
OC(c1ccccn1)C1(C(c2ccccc2)C(F)(F)F)CCC1 (stereo not drawn) [Example 58, pyridin-2-yl[1-(2,2,2-trifluoro-1-phenylethyl)cyclobutyl]methanol] | 3.63 µM | 36% | 33% | –
O[C@H](c1ccccn1)[C@@]1(c2ccc(Cl)c(Cl)c2)CCO1 [Example 135, (R)-[(2S)-2-(3,4-dichlorophenyl)oxetan-2-yl](pyridin-2-yl)methanol] | 1.01 µM | 33% | 3.4% | –
OC(c1ccccn1)C1(c2ccc(Oc3ccccc3)cc2)CCC1 (stereo not drawn) [Example 24, [1-(4-phenoxyphenyl)cyclobutyl](pyridin-2-yl)methanol] | 4.7 µM | 20% | 17% | –
OC(c1ccccn1)C1(c2ccc(Cl)c(Cl)c2)CCOCC1 (stereo not drawn) [Example 59, [4-(3,4-dichlorophenyl)tetrahydro-2H-pyran-4-yl](pyridin-2-yl)methanol] | 1.79 µM | 45% | 12% | –
CN1CC(c2ccc(C(F)(F)F)cc2)(C(O)c2ccccn2)C1 (stereo not drawn) [Example 155, {1-methyl-3-[4-(trifluoromethyl)phenyl]azetidin-3-yl}(pyridin-2-yl)-methanol] | 17 µM | >85% | 76% | –
OC(c1ccccn1)C1(c2cccc(C(F)(F)F)c2)CC(F)(F)C1 (stereo not drawn) [Example 113, {3,3-difluoro-1-[3-(trifluoromethyl)phenyl]cyclobutyl}(pyridin-2-yl)-methanol] | 0.26 µM | 24% | 18% | –
Cc1cccnc1[C@@H](O)C1(c2ccc(Cl)c(Cl)c2)CCC1 [Example 30, (S)-[1-(3,4-dichlorophenyl)cyclobutyl] (3-methylpyridin-2-yl)methanol] | 1.72 µM | 1.5% | 0.98% | –

Next, values leading:

IC50 [1, 4] | HUMAN MICROSOMAL STABILITY (% REMAINING AFTER 30 MINUTES) [2] | RAT MICROSOMAL STABILITY (% REMAINING AFTER 30 MINUTES) [3] | IC50 [1, 5] | Structure (SMILES)
> 20 µM | 0.16% | <0.01% | > 20 µM | OC(C1CCCc2cccnc21)C1(c2cccc(OC(F)(F)F)c2)CCC1 (stereo not drawn) [Example 188, (syn)-5,6,7,8-tetrahydroquinolin-8-yl{1-[3-(trifluoromethoxy)phenyl]-cyclobutyl}methanol]
3.88 µM | 0.02% | <0.01% | – | OC(c1ccccn1)C1(C2CCCCC2)CCC1 (stereo not drawn) [Example 162, (1-cyclohexylcyclobutyl)(pyridin-2-yl)methanol]
4.58 µM | >85% | 80% | – | N[C@H]1CCC[C@H]1[C@@H](O)C1(c2ccc(OC(F)(F)F)cc2)CCC1 [Example 229, (R)-[(1R,2S)-2-aminocyclopentyl]{1-[4-(trifluoromethoxy)phenyl]-cyclobutyl}methanol]
4.31 µM | 62% | >85% | – | OC1CC(c2ccc(Cl)c(Cl)c2)(C(O)c2ccccn2)C1 (single isomer, unassigned) [Example 247]
0.29 µM | 63% | 49% | – | OC1CC(c2ccnc(C(F)(F)F)c2)(C(O)c2ccccn2)C1 [Example 305, cis-3-[(S)-hydroxy(pyridin-2-yl)methyl]-3-[2-(trifluoromethyl)pyridin-4-yl]-cyclobutanol]
13.8 µM | >85% | 74% | – | CC1(O)CC(c2ccc(OC(F)(F)F)cc2)(C(O)c2ccccn2)C1 (single isomer, unassigned) [Example 203]
> 20 µM | 80% | 59% | > 20 µM | O=C1CC(c2ccnc(C(F)(F)F)c2)(C(O)c2ccccn2)C1 (stereo not drawn) [Example 298, 3-[hydroxy(pyridin-2-yl)methyl]-3-[2-(trifluoromethyl)pyridin-4-yl]-cyclobutanone]
3.99 µM | 73% | 68% | – | N[C@H]1CCC[C@H]1[C@H](O)C1(c2ccc(Cl)c(Cl)c2)CCC1 [Example 217, (S)-[(1R,2S)-2-aminocyclopentyl][1-(3,4-dichlorophenyl)cyclobutyl]-methanol]
5.94 µM | >85% | >85% | – | OC1CC(c2ccc(C(F)(F)F)cc2)([C@H](O)c2ccccn2)C1 (mixture of isomers) [Example 166, 3-[(S)-hydroxy(pyridin-2-yl)methyl]-3-[4-(trifluoromethyl)phenyl]-cyclobutanol]
